# US9371294B2, “Cycloalkenyl aryl derivatives for CETP inhibitor” (CHONG KUN DANG PHARMACEUTICAL CORP., priority 2011, dated 2016)
# pIC50: −log10 of the molar value.
# Columns and labels:
# golden syrian hamsters = assay: Test for anti-hyperlipidemia activity in hamsters (blood HDL-c levels); type: in vivo; settings: male golden syrian hamsters; 3 mg/kg orally for 5 days; serum HDL-cholesterol 4 hours after last administration; vs vehicle control
# Description: […] Test for Anti-Hyderlipidemia Activity in Hamsters
# 1. Experimental animals As test animals, 8-week-old male golden syrian hamsters were purchased and used in the experimental. The animal facility was kept at constant temperature and constant humidity with a 12-hr dark/12-hr light cycle, and the animals were allowed to access food and water ad libitum.
# 2. Experimental for Anti-Hyperlipidemia Activity in Hamsters
# The test animals were used in the test after an acclimation of 1 week. The test animals were divided according to body weight into several groups, each consisting of 5-8 animals. 3 mg/kg of each test compound (CETP inhibitor) was administered orally to the animals. Each test compounds was suspended in a solvent vehicle that is a solution of 5% ethanol, 10% solutol and 85% deionized water (DW), to be used. Each of test compounds suspended in a solvent vehicle was administered orally to the […] for 5 days. To the control group, a solvent vehicle itself was administered. And then, after 4 hours from the last administration, blood was collected through the cardiac puncture. The collected blood was centrifuged at 3000 rpm for 15 minutes, and the concentration of HDL-cholesterol (Biosystem) in the separated serum was measured using a biochemical analyzer (ILab 300 plus, Instrumentation Laboratory).
# 3. Statistical Processing
# All the results were expressed as mean±SEM, and each test group and the control group were compared using one-way ANOVA test (Dunnett's test, p<0.001) in order to determine the effect of each test group.
# [1] = target: T1, cholesteryl ester transfer protein (Homo sapiens, UniProt P11597); assay: In vitro test for the ability to inhibit cholesteryl ester transfer; type: biochemical; settings: [3H]-cholesteryl oleate transfer from rHDL-agarose to LDL; human plasma as CETP source; 37° C.; 16-10000 nM, duplicate
# T1 construct: As a source of cholesteryl ester transfer protein, plasma from healthy humans was used; from tissue; host or cells: plasma from healthy humans
# T1 sequence (P11597 18-493): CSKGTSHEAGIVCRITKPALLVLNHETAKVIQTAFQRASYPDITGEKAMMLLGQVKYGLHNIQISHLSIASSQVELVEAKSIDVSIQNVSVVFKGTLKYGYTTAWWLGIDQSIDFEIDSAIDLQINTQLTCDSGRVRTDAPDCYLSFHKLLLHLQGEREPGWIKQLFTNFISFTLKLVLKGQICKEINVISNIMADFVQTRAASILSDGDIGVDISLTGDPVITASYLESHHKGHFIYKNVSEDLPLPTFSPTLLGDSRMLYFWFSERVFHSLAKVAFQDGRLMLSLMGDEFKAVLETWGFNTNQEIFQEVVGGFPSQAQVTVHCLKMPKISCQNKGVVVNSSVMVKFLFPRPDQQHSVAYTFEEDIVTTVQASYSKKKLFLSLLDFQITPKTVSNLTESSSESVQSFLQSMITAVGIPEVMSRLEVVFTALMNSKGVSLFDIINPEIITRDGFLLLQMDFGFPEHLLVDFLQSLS
# In short: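 Human plasma served as the CETP source, with human LDL (0.25 mg/ml) as acceptor and agarose-immobilised recombinant HDL carrying [3H]-cholesteryl oleate (0.25 mg/ml) as donor, at 37 °C. Compounds were run in duplicate at 16–10000 nM. Transferred radioactivity in the supernatant was counted by beta detection, and IC50 was fitted from the fraction of label transferred to LDL.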
SMILES,HDL-c Increase (%) (golden syrian hamsters),pIC50 [1]
COc1cc(F)c(C(C)C)cc1C1=C(CN2C(=O)O[C@H](c3cc(C(F)(F)F)cc(C(F)(F)F)c3)[C@@H]2C)CC(C)CC1 (some centres unmarked) [Compound 25],33%,6.70
"COc1cc(F)c(C(C)C)cc1C1=C(CN2C(=O)O[C@H](c3cc(C(F)(F)F)cc(C(F)(F)F)c3)[C@@H]2C)CC(C(F)(F)F)CC1 (stereo partly drawn) [Compound 48, (4S,5R)-5-(3,5-bis(trifluoromethyl)phenyl)-3-((2-(4-fluoro-5-isopropyl-2-methoxyphenyl)-5-(trifluoromethyl)cyclohex-1-enyl)methyl)-4-methyloxazolidin-2-one]",41%,8.30
"COc1ccc(N(C)C(=O)C(C)C)cc1C1=C(CN2C(=O)O[C@H](c3cc(C(F)(F)F)cc(C(F)(F)F)c3)[C@@H]2C)CC(C)(C)CC1 [Compound 113, N-(3-(2-(((4S,5R)-5-(3,5-bis(trifluoromethyl)phenyl)-4-methyl-2-oxooxazolidin-3-yl)methyl)-4,4-dimethylcyclohex-1-enyl)-4-methoxyphenyl)-N-methylisobutyramide]",17%,–
"COC(=O)c1ccc(OC)c(C2=C(CN3C(=O)O[C@H](c4cc(C(F)(F)F)cc(C(F)(F)F)c4)[C@@H]3C)CCCC2)c1 [Compound 36, methyl 3-(2-(((4S,5R)-5-(3,5-bis(trifluoromethyl)phenyl)-4-methyl-2-oxooxazolidin-3-yl)methyl)cyclohex-1-enyl)-4-methoxybenzoate]",11%,5.96
"COc1ccc(C(F)(F)F)cc1C1=C(CN2C(=O)O[C@H](c3cc(C(F)(F)F)cc(C(F)(F)F)c3)[C@@H]2C)CC(C)(C)CC1 [Compound 97, (4S,5R)-5-(3,5-bis(trifluoromethyl)phenyl)-3-((2-(2-methoxy-5-(trifluoromethyl)phenyl)-5,5-dimethylcyclohex-1-enyl)methyl)-4-methyloxazolidin-2-one]",22%,7.70
"COc1cc(F)c(C(C)C)cc1C1=C(CN2C(=O)O[C@H](c3cc(C(F)(F)F)cc(C(F)(F)F)c3)[C@@H]2C)CC2(CC1)CC2 [Compound 274, (4S,5R)-5-(3,5-bis(trifluoromethyl)phenyl)-3-((6-(4-fluoro-5-isopropyl-2-methoxyphenyl)spiro[2.5]oct-5-en-5-yl)methyl)-4-methyloxazolidin-2-one]",21%,7.85
"COc1ccc(N(C)C(C)=O)cc1C1=C(CN2C(=O)O[C@H](c3cc(C(F)(F)F)cc(C(F)(F)F)c3)[C@@H]2C)CC(C)(C)CC1 [Compound 112, N-(3-(2-(((4S,5R)-5-(3,5-bis(trifluoromethyl)phenyl)-4-methyl-2-oxooxazolidin-3-yl)methyl)-4,4-dimethylcyclohex-1-enyl)-4-methoxyphenyl)-N-methylacetamide]",43%,8.10
"COc1ccc(C(C)(C)C)cc1C1=C(CN2C(=O)O[C@H](c3cc(C(F)(F)F)cc(C(F)(F)F)c3)[C@@H]2C)CC(C)(C)CC1 [Compound 115, (4S,5R)-5-(3,5-bis(trifluoromethyl)phenyl)-3-((2-(5-tert-butyl-2-methoxyphenyl)-5,5-dimethylcyclohex-1-enyl)methyl)-4-methyloxazolidin-2-one]",29%,8.00
"COc1ccc(CC(C)(C)C(=O)O)cc1C1=C(CN2C(=O)O[C@H](c3cc(C(F)(F)F)cc(C(F)(F)F)c3)[C@@H]2C)CC(C)(C)CC1 [Compound 286, 3-(3-(2-(((4S,5R)-5-(3,5-bis(trifluoromethyl)phenyl)-4-methyl-2-oxooxazolidin-3-yl)methyl)-4,4-dimethylcyclohex-1-enyl)-4-methoxyphenyl)-2,2-dimethylpropanoic acid]",42%,7.92
"COc1ccc(C(C)C)cc1C1=C(CN2C(=O)O[C@H](c3cc(C(F)(F)F)cc(C(F)(F)F)c3)[C@@H]2C)CC(C(F)(F)F)CC1 (stereo partly drawn) [Compound 108, (4S,5R)-5-(3,5-bis(trifluoromethyl)phenyl)-3-((2-(5-isopropyl-2-methoxyphenyl)-5-(trifluoromethyl)cyclohex-1-enyl)methyl)-4-methyloxazolidin-2-one]",23%,7.70
"COc1cc(F)c(C2(C)CC2)cc1C1=C(CN2C(=O)O[C@H](c3cc(C(F)(F)F)cc(C(F)(F)F)c3)[C@@H]2C)CC(C)(C)CC1 [Compound 302, (4S,5R)-5-(3,5-bis(trifluoromethyl)phenyl)-3-((2-(4-fluoro-2-methoxy-5-(1-methylcyclopropyl)phenyl)-5,5-dimethylcyclohex-1-enyl)methyl)-4-methyloxazolidin-2-one]",38%,8.22
"COc1cc(F)c(C(C)C)cc1C1=C(CN2C(=O)O[C@H](c3cc(C(F)(F)F)cc(C(F)(F)F)c3)[C@@H]2C)CC(C)(C)CC1 [Compound 19, (4S,5R)-5-(3,5-bis(trifluoromethyl)phenyl)-3-((2-(4-fluoro-5-isopropyl-2-methoxyphenyl)-5,5-dimethylcyclohex-1-enyl)methyl)-4-methyloxazolidin-2-one]",35%,–
"COc1ccc(N(C)c2nc(C(F)(F)F)cs2)cc1C1=C(CN2C(=O)O[C@H](c3cc(C(F)(F)F)cc(C(F)(F)F)c3)[C@@H]2C)CC(C)(C)CC1 [Compound 212, (4S,5R)-5-(3,5-bis(trifluoromethyl)phenyl)-3-((2-(2-methoxy-5-(methyl(4-(trifluoromethyl)thiazol-2-yl)amino)phenyl)-5,5-dimethylcyclohex-1-enyl)methyl)-4-methyloxazolidin-2-one]",–,7.10
"COc1ccc(N)cc1C1=C(CN2C(=O)O[C@H](c3cc(C(F)(F)F)cc(C(F)(F)F)c3)[C@@H]2C)CC(C(F)(F)F)CC1 (stereo partly drawn) [Compound 195, (4S,5R)-3-((2-(5-amino-2-methoxyphenyl)-5-(trifluoromethyl)cyclohex-1-enyl)methyl)-5-(3,5-bis(trifluoromethyl)phenyl)-4-methyloxazolidin-2-one]",–,6.08
"COc1ccc(C(O)(C(F)(F)F)C(F)(F)F)cc1C1=C(CN2C(=O)O[C@H](c3cc(C(F)(F)F)cc(C(F)(F)F)c3)[C@@H]2C)CC(C)(C)CC1 [Compound 181, (4S,5R)-5-(3,5-bis(trifluoromethyl)phenyl)-3-((2-(5-(1,1,1,3,3,3-hexafluoro-2-hydroxypropan-2-yl)-2-methoxyphenyl)-5,5-dimethylcyclohex-1-enyl)methyl)-4-methyloxazolidin-2-one]",–,7.30
"COc1ccc(Cl)cc1C1=C(CN2C(=O)O[C@H](c3cc(C(F)(F)F)cc(C(F)(F)F)c3)[C@@H]2C)CC(C)(C)CC1 [Compound 353, (4S,5R)-5-(3,5-bis(trifluoromethyl)phenyl)-3-((2-(5-chloro-2-methoxyphenyl)-5,5-dimethylcyclohex-1-enyl)methyl)-4-methyloxazolidin-2-one]",–,7.52
"CNC(=O)C(C)(C)Cc1ccc(OC)c(C2=C(CN3C(=O)O[C@H](c4cc(C(F)(F)F)cc(C(F)(F)F)c4)[C@@H]3C)CC(C)(C)CC2)c1 [Compound 321, 3-(3-(2-(((4S,5R)-5-(3,5-bis(trifluoromethyl)phenyl)-4-methyl-2-oxooxazolidin-3-yl)methyl)-4,4-dimethylcyclohex-1-enyl)-4-methoxyphenyl)-N,2,2-trimethylpropanamide]",–,6.98
"COc1ccc(NC(C)=O)cc1C1=C(CN2C(=O)O[C@H](c3cc(C(F)(F)F)cc(C(F)(F)F)c3)[C@@H]2C)CC(C)(C)CC1 [Compound 110, N-(3-(2-(((4S,5R)-5-(3,5-bis(trifluoromethyl)phenyl)-4-methyl-2-oxooxazolidin-3-yl)methyl)-4,4-dimethylcyclohex-1-enyl)-4-methoxyphenyl)acetamide]",–,6.64
"COc1ccc(C(C)C)cc1C1=C(CN2C(=O)O[C@H](c3cc(C(F)(F)F)cc(C(F)(F)F)c3)[C@@H]2C)CC(C)(C)CC1 [Compound 107, (4S,5R)-5-(3,5-bis(trifluoromethyl)phenyl)-3-((2-(5-isopropyl-2-methoxyphenyl)-5,5-dimethylcyclohex-1-enyl)methyl)-4-methyloxazolidin-2-one]",–,8.40
